Test results taken from patent US20030109537A1, “Methods and materials for treating bone conditions” (priority 2001, published 2003).

How the values were obtained:
[1] = test system: PDGF-A positive mast cells; experiment: Immunohistochemistry for PDGF-A on bone samples; format: in vivo, rat
[2] = test system: PTH-induced marrow fibrosis and osteoclast resorption; experiment: Bone histomorphometry in rats given trapidil, continuous PTH or both; format: in vivo, rat; details: continuous PTH, significant upon two-way ANOVA
[3] = test system: rat model for parathyroid bone disease; experiment: Rat model for parathyroid bone disease: pulsatile vs continuous PTH, bone histomorphometry; format: in vivo; details: rats
Serum chemistry and PTH = format: in vivo, rat; details: rats
Procedure: Treatment protocol. Three month-old female Sprague-Dawley rats were divided into 4 groups. In group 1 (n=9), osmotic pumps that delivered vehicle alone at a rate of 1 μl/hr for 7 days were implanted in each rat. […] In groups 3 and 4 (n=8 and 10, respectively), osmotic pumps were implanted in each rat that delivered 40 μg/kg/day hPTH at a rate of 1 μl/hr for 7 days. […] Tetracycline (20 mg/kg, Sigma Chemical Co., St. Louis, Mo.) and calcein (20 mg/kg, Sigma) fluorochrome labels were injected at the base of the tail on day 0 (tetracycline) and day 6 (calcein). On day 8, all rats were anesthetized and blood was collected by cardiac puncture. The blood samples were used to determine serum chemistry and PTH levels. Following blood collection, the rats were sacrificed by cervical dislocation, and tibiae were surgically removed and fixed in 70% ethanol for bone histomorphometry.
Serum chemistry and PTH. Total serum calcium, phosphate, and magnesium levels were measured in rat blood samples by Central Clinical Laboratory Research at the Mayo Clinic using automated procedures. Serum PTH was measured using an immunoradiometric assay for rat PTH (Immunotopics International, LLC, San Clementa, Calif.) that has approximately 100% cross-reactivity to human PTH.
Serum and bone samples were collected after 7 days and analyzed.

[4] = test system: genes for cytokines and their receptors; experiment: cDNA microarray analysis of PTH-regulated genes in proximal tibial metaphysis; format: in vivo, rat; details: for genes regulated (of 8500 rat genes, Affymetrix): p<0.05
Procedure: Induction of parathyroid bone disease. Three month-old female Sprague-Dawley rats (Harlan Sprague-Dawley, Inc., Indianapolis, Ind.) were randomly divided into 3 groups, with 5 rats per group. In group 1 (pulsatile or intermittent PTH), each rat received 80 μg/kg/day human PTH (1-34) (hPTH) in vehicle (150 mM NaCl, 1 mM HCl and 2% heat-inactivated rat serum) by subcutaneous (s.c.) injection once daily for 7 days. In group 2 (vehicle), an osmotic pump (Alza Corp., Mountainview, Calif.) that delivered vehicle alone at a rate of 1 μl/hr for 7 days was implanted in each rat. In group 3 (continuous PTH), an osmotic pump that delivered 40 μg/kg/day hPTH at a rate of 1 μl/hr for 7 days was implanted in each rat. On day 8, all rats were anesthetized with ketamine (50 mg/kg): xylazine HCl (5 mg/kg) and sacrificed by decapitation. Both tibiae were removed from each rat. Right tibiae were fixed by immersion in 70% ethanol then processed for bone histology to verify the appearance of peritrabecular fibrosis. Left tibiae were frozen in liquid N2 and stored at −80° C. until processed for RNA isolation.
Isolation of RNA. Frozen proximal tibial metaphyses were individually homogenized in guanidine isothiocyanate using a Spex freezer mill (Industries, Inc., Edison, N.J.). Total RNA was extracted from the homogenate using a modified organic solvent method. See Chomczynski et al., Anal. Biochem., 162:156-159 (1987). Isolated RNA yields were determined spectrophotometrically at 260 nm using standard methods.
cDNA microarray analysis. cDNA probes were generated by reverse transcription (Superscript II, Life Technologies, Rockville, Md.) using 1 μg total RNA isolated from the proximal tibial metaphysis of rats in groups 1, 2, and 3. First-strand cDNA probes were primed by the addition of oligo dT and subsequently labeled with [α-^33P]dCTP (ICN Radiochemicals Costa Mesa, Calif.). The labeled probes then were purified by passage through a Sephadex G-50 DNA Grade Column (Amersham Pharmacia Biotech AB, Uppsala, Sweden). The purified probes were hybridized to a rat genefilter microarray containing 5531 genes (GF 300; Research Genetics, Huntsville, Ala.). according to the manufacturer's recommended protocol. A micro-array system from Affymetrix, which contains 8500 genes, also was used. After hybridization, the array was washed and wrapped with plastic wrap before placing in a phosphor imaging cassette containing a Cyclone Storage Phosphor Screen (Packard, Downers Groves, Ill.). After 24 hours, the screen was imaged and the resulting images analyzed using Pathways 2.01 software to compare the signal intensities of spots.
Candidate genes associated with peritrabecular fibrosis were identified with cDNA microarrays containing 5531 or 8500 genes as described in Example 1. Approximately 14% of the total genes measured were differentially expressed by at least 2.5-fold between pulsatile and continuous PTH-treated groups. […] Of the regulated genes, 158 were unique to intermittent administration of PTH and 759 to continuous administration of PTH. An additional 158 genes were common to both treatments.
The list of candidate genes was examined to determine if any of the genes encoded growth factors. More specifically, it was determined if the differentially expressed genes were growth factors produced on or near bone surfaces, were chemotactic to fibroblasts, were able to stimulate fibroblast proliferation, or could induce bone resorption. One of the candidate genes, PDGF, a known mitogenic and chemotactic factor for fibroblasts, met all these criteria.

[5] = continuous PTH 40 μg/kg/day osmotic pump 7 days
[6] = continuous PTH 40 μg/kg/day osmotic pump 7 days, vs untreated control
[7] = continuous PTH infusion 40 μg/kg/d
[8] = day 8, trapidil 40 mg/kg/day s.c. 7 days, hPTH 40 μg/kg/day continuous by osmotic pump 7 days, mean ± SEM
[9] = continuous PTH, rat proximal tibial metaphysis, gene microarray
[10] = continuous administration of PTH
[11] = intermittent administration of PTH

Substance: human PTH (1-34)
- mast cell staining for PDGF-A peptide ([1]; PTH-treated rats): stained intensely
- number of PDGF-A positive mast cells ([1]; PTH-treated vs vehicle, PTH+trapidil treated): increased
- rate of mineral apposition [2]: slightly increased
- time to increase in 3H-proline incorporation into bone matrix proteins ([3]; PTH s.c. 80 μg/kg/d): ≤ 24 h
- time to increase in the number of fully mature osteoblasts ([3]; PTH s.c. 80 μg/kg/d): ≤ 3 days
- time to upregulation of mRNA levels for bone matrix proteins (type I collagen, osteonectin, osteocalcin) ([3]; PTH s.c. 80 μg/kg/d): ≤ 16 h
- Marrow fibrosis [3, 5]: Extensive^b
- Osteoid surface [3, 5]: Extensive^b
- Bone formation rate [3, 6]: ↑^a
- Osteoblast perimeter [3, 6]: ↑^a
- Osteoclast perimeter [3, 6]: ↑^b
- mRNA levels for one matrix proteins [3, 6]: ↑^a
- detrimental skeletal effects of continuous PTH [3, 7]: extensive peritrabecular fibrosis, osteomalacia, increased bone formation, and focal bone resorption
- systemic side effects on reducing the dose rate [3, 7]: greatly reduced systemic side effects
- systemic effects of continuous release ([3]; hPTH infused continuously 80 μg/kg/d, s.c. osmotic pump): severe hypercalcemia and weight loss
- daily PTH pulse duration at which detrimental side effects were observed ([3]; programmed implantable osmotic pump, same quantity of PTH): ≥ 2 h
- Bone formation rate ([3]; pulsatile PTH 80 μg/kg/day s.c. once daily 7 days, vs untreated control): ↑^a
- effect on serum calcium levels ([3]; subcutaneous PTH 80 μg/kg/d): no effect
- serum chemistry effect of continuous PTH (Serum chemistry and PTH; continuous PTH 40 μg/kg/day 7 days): induced hypercalcemia and hyperparathyroidism
- Serum Calcium (Serum chemistry and PTH; [8]): 11.65 ± 0.28^ab mg/dl
- Serum Magnesium (Serum chemistry and PTH; [8]): 2.49 ± 0.04 mg/dL
- Serum PTH (Serum chemistry and PTH; [8]): 98.27 ± 11.12^ab pg/ml
- Serum Phosphorus (Serum chemistry and PTH; [8]): 7.95 ± 0.48 mg/dL
- total genes differentially expressed by at least […] between pulsatile and continuous PTH-treated groups ([4]; cDNA microarrays): Approximately 14%
- BMP-1 gene expression, Fold Change [4, 9]: 1.3 fold
- BMP-3 gene expression, Fold Change [4, 9]: 19 fold
- BMP-6 gene expression, Fold Change [4, 9]: 1.6 fold
- COX2 gene expression, Fold Change [4, 9]: 1.8 fold
- FGF gene expression, Fold Change [4, 9]: 5.1 fold
- FGF receptor-1 gene expression, Fold Change [4, 9]: 2.7 fold
- IL-6 receptor gene expression, Fold Change [4, 9]: −1.2 fold
- IL-12p40 gene expression, Fold Change [4, 9]: 1.3 fold
- PGE2 receptor EP3 gene expression, Fold Change [4, 9]: 1.7 fold
- PTH receptor gene expression, Fold Change [4, 9]: 3.8 fold
- TGF-β1 gene expression, Fold Change [4, 9]: 1.5 fold
- TGF-β3 gene expression, Fold Change [4, 9]: 1.9 fold
- PDGF-A gene expression, Fold Change ([4]; continuous PTH, rat proximal tibial metaphysis, gene microarray, n = 5): 85 fold
- number of regulated genes unique to the regimen [4, 10]: 759
- genes regulated (of 8500 rat genes, Affymetrix) [4, 10]: 10.4%
- number of regulated genes unique to the regimen [4, 11]: 158
- genes regulated (of 8500 rat genes, Affymetrix) [4, 11]: 3.6%
- number of regulated genes common to both treatments ([4]; intermittent and continuous PTH): 158
